Measured values: US8455528B2, “Imidazole derivatives useful as inhibitors of FAAH” (Merck Sharp & Dohme Corp., priority 2008, dated 2013)

target: T1, Human FAAH (Homo sapiens, UniProt O00519); test: Human FAAH whole cell assay (FAAH_CHO cells); format: cell-based; conditions: FAAH inhibition, whole CHO cells expressing human FAAH
T1 construct: The full length FAAH was subcloned into the mammalian expression vector, pcDEF.neo; expressed in transfected cells
T1 sequence (O00519 1-579): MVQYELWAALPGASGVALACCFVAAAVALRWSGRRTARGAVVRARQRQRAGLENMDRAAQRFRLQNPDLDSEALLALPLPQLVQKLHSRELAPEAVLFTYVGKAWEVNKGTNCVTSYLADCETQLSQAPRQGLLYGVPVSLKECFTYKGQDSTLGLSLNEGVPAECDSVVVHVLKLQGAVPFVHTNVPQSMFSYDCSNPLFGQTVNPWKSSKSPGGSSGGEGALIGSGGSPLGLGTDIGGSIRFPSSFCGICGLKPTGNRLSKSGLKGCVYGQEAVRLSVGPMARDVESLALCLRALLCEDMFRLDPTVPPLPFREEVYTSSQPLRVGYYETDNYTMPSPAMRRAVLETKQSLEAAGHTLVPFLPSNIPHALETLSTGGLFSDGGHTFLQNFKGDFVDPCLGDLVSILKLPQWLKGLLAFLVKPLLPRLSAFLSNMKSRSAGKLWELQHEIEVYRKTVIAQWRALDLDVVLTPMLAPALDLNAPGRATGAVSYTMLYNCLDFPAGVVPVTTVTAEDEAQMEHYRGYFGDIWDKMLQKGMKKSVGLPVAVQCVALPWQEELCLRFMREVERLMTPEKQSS
Text: To assist in assay development stable cell lines for human, murine and rat full length FAAH were developed. Human FAAH cDNA (Accession No: NM_001441.1) was purchased from Origene (Rockville, Md.). The full length FAAH was subcloned into the mammalian expression vector, pcDEF.neo, using XbaI and EcoRI restriction sites and used for stable cell line generation.
Murine (accession number NM_010173) and Rat FAAH (accession number NM_024132) was amplified by reverse transcriptase polymerase chain reaction (RT-PCR) from brain cDNA (BD Biosciences, San Jose, Calif.) using primers 1 and 2 or primers 1 and 3 respectively (see Table). The resulting PCR product was ligated into pCR4 TOPO and DNA sequence confirmed. The full length murine FAAH was subcloned into the mammalian expression vector, pcDEFneo using either EcoRI (murine) or KpnI and EcoRI (rat) restriction sites. Chinese hamster ovary cells (CHO) were transfected following manufacturers protocol (AMAXA). Forty eight hours post transfection, cells were trypsinized and transferred to 96 well plates in Iscove's DMEM media supplemented with 2 mM Glutamine, 10% fetal calf serum, 1 mg/ml geneticin and HT Supplement (0.1 mM sodium hypoxanthine, 0.016 mM thymidine) in order to isolate single clones. Following selection in geneticin, individual clones were selected and FAAH activity was assessed using a whole cell fluorescent anandamide assay, modified from Ramarao et al (2005). Following removal of tissue culture media cells were dislodged following addition of Cellstripper (Mediatech, Inc. Manassas, Va.) and transferred to 96 well black clear bottom assay plate, centrifuged at 1,000 rpm for 3 mins and media removed and replaced with assay buffer (50 mM Tris pH8.0, 1 mM EDTA, 0.1% fatty acid free BSA). The reaction was initiated by addition of fluorescent substrate, AMC Arachidonoyl Amide (Cayman Chemical, Ann Arbor, Mich.) to 1 μM and reaction allowed to proceed for 2 hours at room temperature. Release of fluorescence was monitored in a CytoFluor Multiplate Reader. Cells expressing the highest amount of FAAH activity were selected for study with FAAH inhibitors.
(American Radiolabeled Chemicals; 1 mCi/ml) with FAAH (Life Sciences (1995), 56, 1999-2005 and Journal of Pharmacology and Experimented Therapeutics (1997), 283, 729-734), Analytical. Biochemistry (2003), 318, 270-5. In addition, routine assays were performed monitoring hydrolysis of arachidonyl-7-amino-4-methylcoumarin amide (AAMCA) by following increase in fluorescence upon release of 7-amino 4-methyl coumarin (λEX=355 nm, (λEM=460 nm). Analytical. Biochemistry (2005). 343, 143-51
Assays are performed on either cell lysate or microsome fractions prepared as described or in whole cell format employing either the fluorescent substrate AAMCA (Cayman chemical, Ann Arbor, Mich.) or ^3H-anandmaide ([ETHANOLAMINE-1-3H] American Radiolabeled Chemicals; 1 mCi/ml). The cell lysate or microsome assay is performed in Costar black wall, clear bottom plates by adding FAAH_CHO (whole cell, cell lysate or microsome) in assay buffer (50 mM Phosphate, pH 8.0, 1 mM EDTA, 200 mM KCl, 0.2% glycerol, 0.1% fatty acid free BSA) to each well, followed by either DMSO or compound and allowed to incubate at 22-25° C. for fifteen minutes. AAMCA substrate was used to achieve a final concentration of 1 μM and reaction allowed to proceed at room temperature for 1-3 hours. Fluorescent release as a measure of FAAH activity was monitored by reading the plate in a CytoFluor Multiplate Reader ([…]). Whole cell assay is conducted with cells harvested after rinsing tissue culture flasks three times with Ca^++Mg^++ free PBS, incubating for 10 min in Enzyme free dissociation media and centrifuging for 5 minutes at 1,000 rpm in table top centrifuge. Cells are resuspended in assay buffer at desired cell number in (4×10^4 cells/assay in 96-well format; 1×10^4 cells/assay in 384-well format) and assayed as described.

| Compound | IC50 [nM] |
| --- | --- |
| Cn1c(-c2ccccc2)nc(-c2ccc(C#N)cc2)c1Sc1ccc(Cl)cc1 [Ex 2, 4-{5-[(4-Chlorophenyl)thio]-1-methyl-2-phenyl-1H-imidazol-4-yl}benzonitrile] | 84.8 |
| CS(=O)(=O)c1ccc(-c2nc(C3CCC3)[nH]c2Sc2ccc(Cl)cc2)cc1 [Ex 13] | 3000 |
| Cn1c(C2CCC2)nc(-c2ccc(S(C)(=O)=O)cc2)c1Sc1ccc(Cl)cc1 [Ex 14] | 107 |
| CC(C)c1nc(-c2ccc(S(C)(=O)=O)cc2)c(Sc2ccc(Cl)cc2)n1C [Ex 29, 5-[(4-Chlorophenyl)thio]-2-isopropyl-1-methyl-4-[4-(methylsulfonyl)phenyl]-1H-imidazole] | 480 |
| Cn1cnc(-c2ccc(C#N)cc2)c1Sc1ccc(Cl)cc1 [Ex 33, 4-{5-[(4-chlorophenyl)thio]-1-methyl-1H-imidazol-4-yl}benzonitrile] | 2980 |
| Cn1c(-c2ccccn2)nc(-c2ccc(-c3nnco3)cc2)c1Sc1ccc(Cl)cn1 [Ex 36, 5-Chloro-2-({1-methyl-4-[4-(1,3,4-oxadiazol-2-yl)phenyl]-2-pyridin-2-yl-1H-imidazol-5-yl}thio)pyridine] | 48.6 |

The next lines start with the values.

| IC50 [nM] | Compound |
| --- | --- |
| 67.8 | Cn1c(-c2ccccn2)nc(-c2ccc(C(O)C(F)F)cc2)c1Sc1ccc(Cl)cc1 (stereo not drawn) [Ex 57, 1-(4-{5-[(4-Chlorophenyl)thio]-1-methyl-2-pyridin-2-yl-1H-imidazol-4-yl}phenyl)-2,2-difluoroethanol] |
| 52.2 | Cn1c(-c2ccccn2)nc(-c2ccc(-n3ccnn3)cc2)c1Sc1ccc(Cl)cc1 [Ex 66] |
| 1000 | Cn1c(-c2ccccn2)nc(-c2ccc(N)cc2)c1Sc1ccc(Cl)cc1 [Ex 98, 4-{5-[(4-Chlorophenyl)thio]-1-methyl-2-pyridin-2-yl-1H-imidazol-4-yl}aniline] |
